tested on: BaF3 BRAF-KIAA1549 fusion cells; assay: BaF3 BRAF-KIAA1549 fusion cell proliferation assay; assay type: cell-based; settings: Mus musculus, BaF3, 96 h, read-out: IC50, inhibition of cell growth, BaF3-BRAF:KIAA1549 Fusion
Protocol: Retroviral Production: The BRAF-KIAA1549 fusion mutant was subcloned into pMXs-IRES-Blasticidin (RTV-016, Cell Biolabs, San Diego, CA). […]. Briefly, HEK 293T cells were plated in Poly-D-lysine coated 6-well plate (2.5×10^5 cells per well) and incubated overnight. The next day, retroviral plasmids (1 μg of BRAF-KIAA fusion mutant, 0.32 μg of pCMV-Gag-Pol and 0.165 μg pCMV-VSV-G) were mixed in 300 μL of Optimem (31985, Life Technologies). The mixture was incubated at room temperature for 5 minutes and then added to Optimem containing transfection reagent Lipofectamine (11668, Invitrogen) and incubated for 20 minutes. The mixture was then added dropwise to HEK 293T cells. The next day the medium was replaced with fresh culture medium and retrovirus was harvested at 24 hours.
Generation of BRAF-KIAA1549 fusion stable cell line: BaF3 cells were plated in V-bottom 96 well plate (COSTAR #3894) in 80 μL of RPMI/10% FBS and 0.01 ng/mL mouse IL-3, supplemented with 8 μg/mL polybrene (4×10^4 cells/well). Cells were transduced with 20 μL of BRAF-KIAA1549 fusion viral supernatant by centrifuging for 30 minutes at 1000 rpm. Cells were placed in a 37 °C incubator overnight. Next day 100 μL of RPMI/10% FBS and 0.01 ng/mL mouse IL-3 was added. After 24 hours, 100 μL of cells were transferred to a 24 well plate containing 900 μL of RPMI/10% FBS and 15 μg/mL Blasticidin. Contents of the 24 well plate were sampled for cell viability via CellTiterGlo (Promega) over a 2-week period.
Assay for cell proliferation: BaF3 BRAF-KIAA1549 fusion cells were resuspended at 1.5×10^5 c/mL in RPMI containing 10% Heat Inactivated FBS, 1% L-glutamine and dispensed in duplicate ([…]) into 384 well plates. To determine the effect of compound on cell proliferation, BaF3 BRAF-KIAA1549 fusion cells were incubated for 96 hours in the presence of vehicle control (DMSO) or compound at varying concentrations. Inhibition of cell growth was determined by luminescent quantification (Envision by Perkin Elmer) of intracellular ATP content using CellTiterGlo (Promega), according to the protocol provided by the manufacturer. To determine the IC50 values, the vehicle-treated cells were normalized as viable cells and analyzed using the CDD Vault, Collaborative Drug Discovery, Burlingame, CA (the Levenberg-Marquardt algorithm; Levenberg, K, […]; Marquardt, D., 1963).
Table A assigns each compound a code for potency in the BaF3 BRAF-KIAA1549 fusion cell proliferation assay: A, B, C, or D. According to the code, A represents an IC50 value<20 nM; B represents an IC50 value≥20 nM and <100 nM; C represents an IC50 value≥100 nM and <500 nM; and D represents an IC50 value≥500 nM.

Row | Structure (SMILES) | IC50
1 | CNc1cc2ncc(-c3cc(NC(=O)c4cnc5n4C[C@@H](C)CC5)ccc3C)cc2cn1 [compound 231] | 20 to 100 nM
2 | CNc1cc2nc(C#N)c(-c3cc(NC(=O)c4ccnc(C(F)(F)F)c4)ccc3C)cc2cn1 [compound 79] | < 20 nM
3 | CNc1cc2ncc(-c3cc(NC(=O)c4cnc5n4CCCC5)ccc3C)cc2cn1 [compound 216] | 100 to 500 nM
4 | CNc1cc2ncc(-c3cc(NC(=O)C[C@@H]4C[C@H](C(F)(F)F)CCO4)cnc3C)cc2cn1 [compound 35] | 20 to 100 nM
5 | CNc1cc2ncc(-c3cc(NC(=O)c4cnc5n4CC(C(F)F)CC5)ccc3C)cc2cn1 (centres unmarked) [compound 238] | 20 to 100 nM
6 | CNc1cc2ncc(-c3cc(NC(=O)c4n[nH]c5c4C[C@H](C)O[C@@H]5C)ccc3C)cc2cn1 [compound 264] | 20 to 100 nM
7 | CNc1cc2ncc(-c3cc(NC(=O)c4cnc5n4CCCC5)cnc3C)cc2cn1 [compound 209] | > 500 nM
8 | CNc1cc2ncc(-c3cc(NC(=O)c4cccc(C(O)C(F)(F)F)n4)cnc3C)cc2cn1 (centres unmarked) [compound 210] | > 500 nM
9 | CNc1cc2ncc(-c3cc(NC(=O)c4cccc5c4NC(=O)C5(C)C)ccc3C)cc2cn1 [compound 215] | 20 to 100 nM
10 | CNc1cc2ncc(-c3cc(NC(=O)c4cc(C(N(C)C)C(F)(F)F)ccn4)ccc3C)cc2cn1 (centres unmarked) [compound 218] | 20 to 100 nM
11 | Cc1ccc(NC(=O)c2ccnc(C3(F)CC3)c2)cc1-c1cnc2cc(N)ncc2c1 [compound 154] | < 20 nM
12 | CNc1cc2ncc(-c3cc(NC(=O)c4csc5c4CCC(C)C5)cnc3C)cc2cn1 (centres unmarked) [compound 235] | 20 to 100 nM
13 | CNc1cc2ncc(-c3cc(NC(=O)c4cnn(CC(F)(F)F)c4C)cnc3C)cc2cn1 [compound 240] | > 500 nM
14 | Cc1ncc(NC(=O)c2cc(C(F)(F)F)ccn2)cc1-c1ccc2c3c(ncc2c1)NC(=O)C3 [compound 274] | < 20 nM
15 | CNc1cc2ncc(-c3cc(NC(=O)c4cnc5n4C[C@H](C)CC5)cnc3C)cc2cn1 [compound 259] | 20 to 100 nM
16 | CNc1cc2ncc(-c3cc(NC(=O)c4cccc5c4CCC5=O)cnc3C)cc2cn1 [compound 212] | > 500 nM
17 | CNc1cc2ncc(-c3cc(NC(=O)c4cnc5n4CCCC5C)ccc3C)cc2cn1 (centres unmarked) [compound 214] | 20 to 100 nM
18 | Cc1ccc(NC(=O)c2cc(C(F)F)ccn2)cc1-c1cnc2cc(NCCC#N)ncc2c1 [compound 78] | 20 to 100 nM
19 | CNc1ncc2cc(-c3cc(NC(=O)c4ccnc(C(C)(C)C)c4)cnc3C)cnc2n1 [compound 58] | 20 to 100 nM
20 | CNc1cc2ncc(-c3cc(NC(=O)c4c[nH]c5ccc(C)cc45)ccc3C)cc2cn1 [compound 263] | < 20 nM
21 | CNc1cc2ncc(-c3cc(NC(=O)c4cnc5n4CC(C(F)(F)F)CC5)cnc3C)cc2cn1 (centres unmarked) [compound 243] | 20 to 100 nM
22 | CNc1cc2ncc(-c3cc(NC(=O)c4cnc5n4C[C@@H](C)CC5)cnc3C)cc2cn1 [compound 258] | 20 to 100 nM

The next lines start with the values.

Row | IC50 | Structure (SMILES)
23 | < 20 nM | CNc1cc2ncc(-c3cc(NC(=O)c4ccnc(C5(F)CC5)c4)cnc3C)cc2cn1 [compound 33]
24 | 20 to 100 nM | CNc1cc2ncc(-c3cc(NC(=O)c4cc([C@H](O)C(C)(F)F)ccn4)cnc3C)cc2cn1 [compound 249]
25 | < 20 nM | CNc1cc2ncc(-c3cc(NC(=O)c4cccc(C(C)(C)C#N)c4)ccc3C)cc2cn1 [compound 193]
26 | 20 to 100 nM | CNc1cc2ncc(-c3cc(NC(=O)c4cc(C(F)(F)F)c(C)cn4)cnc3C)cc2cn1 [compound 25]
27 | 20 to 100 nM | CNc1cc2ncc(-c3cc(NC(=O)c4cc(C(O)CC(F)(F)F)ccn4)cnc3C)cc2cn1 (centres unmarked) [compound 242]
28 | 20 to 100 nM | CNc1cc2ncc(-c3cc(NC(=O)[C@H](C)n4cnc(C(F)(F)F)n4)ccc3C)cc2cn1 [compound 68]
29 | 100 to 500 nM | CNc1cc2ncc(-c3cc(NC(=O)c4ccnc(C(F)F)c4)cnc3C)cc2cn1 [compound 28]
30 | 20 to 100 nM | CNc1cc2ncc(-c3cc(NC(=O)c4cc(C(C)(C)C(N)=O)ccn4)ccc3C)cc2cn1 [compound 255]
31 | < 20 nM | CNc1cc2ncc(-c3cc(NC(=O)c4nccc(C(F)(F)F)c4Cl)ccc3C)cc2cn1 [compound 6]
32 | 20 to 100 nM | CNc1cc2ncc(-c3cc(NC(=O)c4cc([C@@H](C)C(C)(F)F)ccn4)cnc3C)cc2cn1 [compound 248]
33 | > 500 nM | CNc1cc2ncc(-c3cc(C(=O)Nc4cc(C(C)(C)C#N)ccn4)cnn3)cc2cn1 [compound 213]
34 | 20 to 100 nM | CNc1cc2ncc(-c3cc(NC(=O)c4ccnc(C(C)(C)F)c4)c(F)cc3C)cc2cn1 [compound 222]
35 | 100 to 500 nM | CNc1cc2ncc(-c3cc(NC(=O)c4cc(C(C)(C)F)ccn4)ccc3C)cc2cn1 [compound 13]
36 | 20 to 100 nM | CNc1cc2ncc(-c3cc(NC(=O)c4nccc(C(C)C)c4Cl)cnc3C)cc2cn1 [compound 256]
37 | 100 to 500 nM | CNc1cc2ncc(-c3cc(NC(=O)N(C)c4ccnc(C(F)F)c4)cnc3C)cc2cn1 [compound 190]
38 | 100 to 500 nM | CNc1cc2ncc(-c3cc(NC(=N)c4cc(C(F)(F)F)ccn4)ccc3C)cc2cn1 [compound 61]
39 | 20 to 100 nM | CNc1cc2ncc(-c3cc(NC(=O)c4cccc(C5(C#N)CC5)c4)cnc3C)cc2cn1 [compound 191]

tested on: KRAS G12D patient-derived NSCLC tumor; assay: Combination with binimetinib in mice with KRAS G12D NSCLC PDX model; assay type: in vivo, Nu/Nu mice; settings: 50 days, oral gavage; monotherapy or combination
Protocol: (§1) Anti-tumor activity of a compound of the present disclosure in combination with binimetinib was investigated in mice with KRAS G12D NSCLC patient-derived xenograft (PDX) model. Nu/Nu mice implanted with KRAS G12D patient-derived NSCLC tumor were randomized to control or treatment group when the overall average tumor mean volume was 172 mm^3. Mice were administered twice daily approximately 12 hours apart with vehicle, twice daily approximately 12 hours apart with binimetinib, and once daily with the compound of the present disclosure, or the combination for 50 days by oral gavage. […] For representative results of the study, see FIG. 2.

Row | Structure (SMILES) | body weight loss
40 | Cn1cnc2c(F)c(Nc3ccc(Br)cc3F)c(C(=O)NOCCO)cc21 [binimetinib] | No significant body weight loss

tested on: A375-Luc melanoma cells; assay: Combination with binimetinib in mice with A375-Luc melanoma (BRAF V600E); assay type: in vivo, BALB/c nude mice; settings: 35 days, oral gavage; monotherapy or combination
Protocol: as §1, with “was also” for “was”, “with melanoma cell line with BRAF V600E mutation. BALB/c nude” for “with KRAS G12D NSCLC patient-derived xenograft (PDX) model. Nu/Nu”, “with A375-Luc melanoma cells” for “with KRAS G12D patient-derived NSCLC tumor”, “was 224” for “was 172”, “for 35” for “for 50”, “FIG. 3.” for “FIG. 2.”

Row | Structure (SMILES) | body weight loss
41 | Cn1cnc2c(F)c(Nc3ccc(Br)cc3F)c(C(=O)NOCCO)cc21 [binimetinib] | No significant body weight loss

Source: patent publication US20260355169A1, “METHODS OF TREATING CANCERS USING ISOQUINOLINE OR 6-AZA-QUINOLINE DERIVATIVES” (Black Diamond Therapeutics, Inc., priority 2022, published 2026)
